In patent EP4273147A1, “SUBSTITUTED SPIROLACTAMS, SALTS THEREOF AND THEIR USE AS HERBICIDALLY ACTIVE SUBSTANCES” (Bayer Aktiengesellschaft, priority 2022, dated 2023):

What was measured:
ABUTH [1] = experiment: Herbicidal pre-emergence action (Table A1); type: in vivo, Abutilon theophrasti; settings: application rate 1280 g/ha; visual grading after ca. 3 weeks vs untreated controls (100% = plants have died off, 0% = as control plants)
How it was run: (§1)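 Weed seeds are sown into sandy loam in pots and covered with soil, with two species per pot, one monocot and one dicot.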

ECHCG [2] = experiment: Herbicidal pre-emergence action (Table A2); type: in vivo, Echinochloa crus-galli; settings: visual grading after ca. 3 weeks
How it was run: as §1

LOLRI [3] = experiment: Herbicidal pre-emergence action (Table A3); type: in vivo, Lolium rigidum; settings: visual grading after ca. 3 weeks
How it was run: as §1

MATIN = experiment: Herbicidal pre-emergence action (Table A4); type: in vivo, Matricaria inodora; settings: application rate 1280 g/ha; visual grading after ca. 3 weeks
How it was run: as §1

SETVI [4] = experiment: Herbicidal pre-emergence action (Table A5); type: in vivo, Setaria viridis; settings: visual grading after ca. 3 weeks
How it was run: as §1

STEME [5] = experiment: Herbicidal pre-emergence action (Table A6); type: in vivo, Stellaria media; settings: application rate 320 g/ha; visual grading after ca. 3 weeks
How it was run: as §1

POAAN [6] = experiment: Herbicidal pre-emergence action (Table A7); type: in vivo, Poa annua; settings: Poa annua, pre-emergence, 504 h; application rate 320 g/ha; visual grading after ca. 3 weeks; read-out: pre-emergence activity against POAAN
How it was run: as §1

AMARE [7] = experiment: Herbicidal pre-emergence action (Table A8); type: in vivo, Amaranthus retroflexus; settings: application rate 320 g/ha; visual grading after ca. 3 weeks vs untreated controls (100% = plants have died off, 0% = as control plants)
How it was run: as §1

KCHSC [8] = experiment: Herbicidal pre-emergence action (Table A10); type: in vivo, Kochia scoparia; settings: application rate 320 g/ha; visual grading after ca. 3 weeks
How it was run: as §1

VERPE [9] = experiment: Herbicidal pre-emergence action (Table A11); type: in vivo, Veronica persica; settings: application rate 1280 g/ha; visual grading after ca. 3 weeks
How it was run: as §1

DIGSA [10] = experiment: Herbicidal pre-emergence action (Table A12); type: in vivo, Digitaria sanguinalis; settings: application rate 320 g/ha; visual grading after ca. 3 weeks
How it was run: as §1

ABUTH [11] = experiment: Herbicidal post-emergence action (Table B1); type: in vivo, Abutilon theophrasti; settings: application rate 320 g/ha; treated at one-leaf stage; rated visually after about 3 weeks vs untreated controls (100% = plants have died, 0% = like control plants)
How it was run: (§2)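 Greenhouse post-emergence screen on potted weeds in sandy loam, treatment at one-leaf stage, visual % control scored ~3 weeks later against untreated plants.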

ALOMY [12] = experiment: Herbicidal post-emergence action (Table B2); type: in vivo, Alopecurus myosuroides; settings: application rate 1280 g/ha; rated visually after about 3 weeks
Description: (§3) Seeds of mono- and dicotyledonous weed plants were placed in plastic pots in sandy loam soil (doubly sown with in each case one species of mono- or dicotyledonous weed plants per pot), covered with soil and cultivated in a greenhouse under controlled growth conditions. 2 to 3 weeks after sowing, the test plants were treated at the one-leaf stage. […] After the test plants had been kept in the greenhouse under optimum growth conditions for about 3 weeks, the activity of the preparations was rated visually in comparison to untreated controls. For example, 100% activity = the plants have died, 0% activity = like control plants.

ECHCG [13] = experiment: Herbicidal post-emergence action (Table B3); type: in vivo, Echinochloa crus-galli; settings: rated visually after about 3 weeks
How it was run: as §2

KCHSC [14] = experiment: Herbicidal post-emergence action (Table B4); type: in vivo, Kochia scoparia; settings: application rate 1280 g/ha; rated visually after about 3 weeks
Description: as §3

LOLRI [15] = experiment: Herbicidal post-emergence action (Table B5); type: in vivo, Lolium rigidum; settings: application rate 320 g/ha; rated visually after about 3 weeks
How it was run: as §2

POAAN [16] = experiment: Herbicidal post-emergence action (Table B7); type: in vivo, Poa annua
How it was run: as §2

SETVI [17] = experiment: Herbicidal post-emergence action (Table B8); type: in vivo, Setaria viridis; settings: application rate 320 g/ha
How it was run: as §2

STEME [18] = experiment: Herbicidal post-emergence action (Table B9); type: in vivo, Stellaria media; settings: application rate 320 g/ha
Description: as §3

VERPE [19] = experiment: Herbicidal post-emergence action (Table B10); type: in vivo, Veronica persica
How it was run: as §2

AMARE [20] = experiment: Herbicidal post-emergence action (Table B11); type: in vivo, Amaranthus retroflexus; settings: application rate 1280 g/ha
How it was run: as §2

DIGSA [21] = experiment: Herbicidal post-emergence action (Table B12); type: in vivo, Digitaria sanguinalis; settings: application rate 320 g/ha
Description: as §3

ALOMY [22] = experiment: Herbicidal pre-emergence action, section C (Table C2); type: in vivo, Alopecurus myosuroides; settings: application rate 320 g/ha; visual grading after ca. 3 weeks
AMARE [23] = experiment: Herbicidal pre-emergence action, section C (Table C3); type: in vivo, Amaranthus retroflexus; settings: application rate 320 g/ha; visual grading after ca. 3 weeks
From the text: (§5) Seeds of mono- and dicotyledonous weed plants and crop plants were sown, in plastic or organic planting pots, in sandy loam and covered with soil. The compounds according to the invention, formulated in the form of wettable powders (WP) or as emulsifiable concentrates (EC), were applied to the surface of the covering soil as aqueous suspension or emulsion, with the addition of 0.5% of an additive, at an application rate of 600 1 of water/ha (converted). Following treatment, the pots were placed in a greenhouse and kept under optimum growth conditions for the test plants.

DIGSA [24] = experiment: Herbicidal pre-emergence action, section C (Table C5); type: in vivo, Digitaria sanguinalis; settings: application rate 320 g/ha; visual grading after ca. 3 weeks
ECHCG [25] = experiment: Herbicidal pre-emergence action, section C (Table C6); type: in vivo, Echinochloa crus-galli; settings: application rate 320 g/ha; visual grading after ca. 3 weeks
SETVI [26] = experiment: Herbicidal pre-emergence action, section C (Table C10); type: in vivo, Setaria viridis; settings: application rate 80 g/ha; visual grading after ca. 3 weeks
From the text: as §5

VIOTR = experiment: Herbicidal pre-emergence action, section C (Table C12); type: in vivo, Viola tricolor; settings: application rate 320 g/ha; visual grading after ca. 3 weeks
ZEAMX [27] = experiment: Pre-emergence effects on crop plants (Table D1); type: in vivo, Zea mays; settings: crop plant; application rate 80 g/ha; visual grading after ca. 3 weeks
TRZAS [28] = experiment: Pre-emergence effects on crop plants (Table D2); type: in vivo, Triticum aestivum; settings: crop plant; application rate 80 g/ha; visual grading after ca. 3 weeks
GLXMA = experiment: Pre-emergence effects on crop plants (Table D4); type: in vivo, Glycine max; settings: crop plant; application rate 80 g/ha; visual grading after ca. 3 weeks
BRSNW [29] = experiment: Pre-emergence effects on crop plants (Table D5); type: in vivo, Brassica napus; settings: crop plant; application rate 320 g/ha; visual grading after ca. 3 weeks
ECHCG [30] = experiment: Herbicidal post-emergence action, section E (Table E5); type: in vivo, Echinochloa crus-galli; settings: application rate 320 g/ha; assessed visually after ca. 3 weeks
From the text: (§4) 2 to 3 weeks after sowing, the test plants were sprayed in the single-leaf stage.

ZEAMX [31] = experiment: Post-emergence effects on crop plants (Table F1); type: in vivo, Zea mays; settings: application rate 320 g/ha, crop plant ZEAMX
From the text: as §4

TRZAS [32] = experiment: Post-emergence effects on crop plants (Table F2); type: in vivo, Triticum aestivum; settings: application rate 320 g/ha, crop plant TRZAS
From the text: as §4

ORYZA = experiment: Post-emergence effects on crop plants (Table F3); type: in vivo, Oryza sativa; settings: application rate 320 g/ha, crop plant ORYZA
From the text: as §4

BRSNW [33] = experiment: Post-emergence effects on crop plants (Table F5); type: in vivo, Brassica napus; settings: application rate 320 g/ha, crop plant BRSNW
From the text: as §4

Question: For `O=C1N(Cc2cnc(Br)s2)CCCC12CCCN(Cc1cnc(Br)s1)C2=O` (single isomer, unassigned; (+)) [I-205, (+)-2,8-bis[(2-bromo-1,3-thiazol-5-yl)methyl]-2,8-diazaspiro[5.5]undecane-1,7-dione], which “pre-emergence activity against ABUTH” value (ABUTH [1]) is on record?
Answer: 90%

Question: And the “pre-emergence activity against ECHCG” value (ECHCG [2]; application rate 1280 g/ha)?
Answer: 90%

Question: And the pest or weed control at 1280 g/ha (LOLRI [3]; Lolium rigidum, pre-emergence, 504 h, application rate 1280 g/ha, read-out: pre-emergence activity against LOLRI)?
Answer: 100%

Question: And the “pre-emergence activity against MATIN” value (MATIN)?
Answer: 90%

Question: What about the “pre-emergence activity against SETVI” value (SETVI [4]; application rate 320 g/ha) of the same compound?
Answer: 100%

Question: And the “pre-emergence activity against STEME” value (STEME [5])?
Answer: 90%

Question: And the pest or weed control at 320 g/ha (POAAN [6])?
Answer: 100%

Question: What about the “pre-emergence activity against AMARE” value (AMARE [7]) of the same compound?
Answer: 90%

Question: And the “pre-emergence activity against KCHSC” value (KCHSC [8])?
Answer: 100%

Question: And the “pre-emergence activity against VERPE” value (VERPE [9])?
Answer: 100%

Question: And the “pre-emergence activity against DIGSA” value (DIGSA [10])?
Answer: 90%

Question: And the “post-emergence activity against ABUTH” value (ABUTH [11])?
Answer: 90%

Question: And the “post-emergence activity against ALOMY” value (ALOMY [12])?
Answer: 90%

Question: What about the pest or weed control at 320 g/ha (ECHCG [13]; Echinochloa crus-galli, post-emergence, 504 h, application rate 320 g/ha, read-out: post-emergence activity against ECHCG) of the same compound?
Answer: 90%

Question: And the “post-emergence activity against KCHSC” value (KCHSC [14])?
Answer: 90%

Question: What about the “post-emergence activity against LOLRI” value (LOLRI [15]) of the same compound?
Answer: 90%

Question: And the “post-emergence activity against POAAN” value (POAAN [16]; application rate 320 g/ha)?
Answer: 90%

Question: And the “post-emergence activity against SETVI” value (SETVI [17])?
Answer: 90%

Question: And the “post-emergence activity against STEME” value (STEME [18])?
Answer: 90%

Question: What about the “post-emergence activity against VERPE” value (VERPE [19]; application rate 320 g/ha) of the same compound?
Answer: 90%

Question: What about the “post-emergence activity against AMARE” value (AMARE [20]) of the same compound?
Answer: 90%

Question: And the “post-emergence activity against DIGSA” value (DIGSA [21])?
Answer: 90%

Question: With `O=C1N(Cc2cc(F)c(F)cc2F)CCCC12CCCN(Cc1cc(F)c(F)cc1F)C2=O` (racemic) [I-213, 2,8-bis[(2,4,5-trifluorophenyl)methyl]-2,8-diazaspiro[5.5]undecane-1,7-dione] as the compound, how does the “pre-emergence activity against ALOMY” value (ALOMY [22]) read?
Answer: 90%

Question: What about the “pre-emergence activity against AMARE” value (AMARE [23]) of the same compound?
Answer: 90%

Question: And the “pre-emergence activity against DIGSA” value (DIGSA [24])?
Answer: 80%

Question: What about the “pre-emergence activity against ECHCG” value (ECHCG [25]) of the same compound?
Answer: 100%

Question: Which results are given for `O=C1N(Cc2ccccc2)CCCC12CCCN(Cc1ccccc1Cl)C2=O` (racemic) [I-066]?
Answer: pre-emergence activity against ECHCG (ECHCG [2]; application rate 320 g/ha): 100%; pre-emergence activity against LOLRI (LOLRI [3]; application rate 320 g/ha): 100%; pre-emergence activity against SETVI (SETVI [4]; application rate 1280 g/ha): 100%; post-emergence activity against ECHCG (ECHCG [13]; application rate 1280 g/ha): 90%; post-emergence activity against POAAN (POAAN [16]; application rate 1280 g/ha): 90%; post-emergence activity against VERPE (VERPE [19]; application rate 1280 g/ha): 90%; pre-emergence activity against ALOMY (ALOMY [22]): 90%; pre-emergence activity against AMARE (AMARE [23]): 90%; pre-emergence activity against ECHCG (ECHCG [25]): 80%; pre-emergence activity against SETVI (SETVI [26]): 100%; pre-emergence activity against VIOTR (VIOTR): 80%; pre-emergence activity against ZEAMX (ZEAMX [27]): 10%; pre-emergence activity against TRZAS (TRZAS [28]): 0%; pre-emergence activity against GLXMA (GLXMA): 0%; pre-emergence activity against BRSNW (BRSNW [29]): 0%; post-emergence activity against ECHCG (ECHCG [30]): 80%; post-emergence activity against ZEAMX (ZEAMX [31]): 0%; post-emergence activity against TRZAS (TRZAS [32]): 0%; post-emergence activity against ORYZA (ORYZA): 0%; post-emergence activity against BRSNW (BRSNW [33]): 0%
